According to US20260130395A1, “Water Dispersible Botanical Compositions” (Aquila Black Limited, priority 2021, published 2026):

Tests used:
[1] = Stability of cannabinoid entourage and Vitamin E components of the powder concentrate by LCMSMS; format: physicochemical; conditions: powder stored at 21-25° C.
Description: At each time period, 0.05 g of powder was dissolved in 10 ml-15 of ethanol, diluted to fall within the analytical range, and injected into the LCMSMS for analysis.

[2] = Stability of cannabinoid compounds and Vitamin E components in Beverage 1 (AB White) by LCMSMS; format: physicochemical; conditions: AB White stored at 8° C.

SMILES: CCCCCc1cc(O)c2c(c1)OC(C)(C)c1ccc(C)cc1-2 [CBN, cannabinol]
- Stability of Plant-Derived Cannabinoid Compounds in Powder Concentrate ([1]; 0 days): 0.480 mg/g powder
- Stability of Plant-Derived Cannabinoid Compounds in Powder Concentrate ([1]; 1 days): 0.471 mg/g powder
- Stability of Plant-Derived Cannabinoid Compounds in Powder Concentrate ([1]; 2 days): 0.488 mg/g powder
- Stability of Plant-Derived Cannabinoid Compounds in Powder Concentrate ([1]; 3 days): 0.474 mg/g powder
- Stability of Plant-Derived Cannabinoid Compounds in Powder Concentrate ([1]; 5 days): 0.491 mg/g powder
- Stability of Plant-Derived Cannabinoid Compounds in Powder Concentrate ([1]; 8 days): 0.469 mg/g powder
- Stability of Plant-Derived Cannabinoid Compounds in Powder Concentrate ([1]; 9 days): 0.466 mg/g powder
- Stability of Plant-Derived Cannabinoid Compounds in Powder Concentrate ([1]; 10 days): 0.499 mg/g powder
- Stability of Plant-Derived Cannabinoid Compounds in Powder Concentrate ([1]; 11 days): 0.494 mg/g powder
- Stability of Plant-Derived Cannabinoid Compounds in Powder Concentrate ([1]; 12 days): 0.496 mg/g powder
- Stability of Plant-Derived Cannabinoid Compounds in Powder Concentrate ([1]; 15 days): 0.472 mg/g powder
- Stability of Plant-Derived Cannabinoid Compounds in Powder Concentrate ([1]; 16 days): 0.483 mg/g powder
- Stability of Plant-Derived Cannabinoid Compounds in Powder Concentrate ([1]; 17 days): 0.465 mg/g powder
- Stability of Plant-Derived Cannabinoid Compounds in Powder Concentrate ([1]; 18 days): 0.470 mg/g powder
- Stability of Plant-Derived Cannabinoid Compounds in Powder Concentrate ([1]; 19 days): 0.490 mg/g powder
- Stability of Plant-Derived Cannabinoid Compounds in Powder Concentrate ([1]; 22 days): 0.486 mg/g powder
- Stability of Plant-Derived Cannabinoid Compounds in Powder Concentrate ([1]; 23 days): 0.469 mg/g powder
- Stability of Plant-Derived Cannabinoid Compounds in Powder Concentrate ([1]; 24 days): 0.465 mg/g powder
- Stability of Plant-Derived Cannabinoid Compounds in Powder Concentrate ([1]; 25 days): 0.486 mg/g powder
- Stability of Plant-Derived Cannabinoid Compounds in Powder Concentrate ([1]; 26 days): 0.486 mg/g powder
- Stability of Plant-Derived Cannabinoid Compounds in Powder Concentrate ([1]; 29 days): 0.484 mg/g powder
- Stability of Plant-Derived Cannabinoid Compounds in Powder Concentrate ([1]; 30 days): 0.476 mg/g powder
- Stability of Plant-Derived Cannabinoid Compounds in Powder Concentrate ([1]; 60 days): 0.489 mg/g powder
- Stability of Plant-Derived Cannabinoid Compounds in Powder Concentrate ([1]; 90 days): 0.483 mg/g powder
- Stability of Plant-Derived Cannabinoid Compounds in Powder Concentrate ([1]; 120 days): 0.498 mg/g powder
- Stability of Plant-Derived Cannabinoid Compounds in Powder Concentrate ([1]; 150 days): 0.500 mg/g powder
- Stability of Plant-Derived Cannabinoid Compounds in Powder Concentrate ([1]; 180 days): 0.464 mg/g powder
- Stability of Plant-Derived Cannabinoid Compounds in Powder Concentrate ([1]; 210 days): 0.501 mg/g powder
- Stability of Plant-Derived Cannabinoid Compounds in Powder Concentrate ([1]; 240 days): 0.467 mg/g powder
- Stability of Plant-Derived Cannabinoid Compounds in Powder Concentrate ([1]; 270 days): 0.464 mg/g powder
- Stability of Plant-Derived Cannabinoid Compounds in Powder Concentrate ([1]; 300 days): 0.469 mg/g powder
- Stability of Plant-Derived Cannabinoid Compounds in Powder Concentrate ([1]; 330 days): 0.502 mg/g powder
- Stability of Plant-Derived Cannabinoid Compounds in Powder Concentrate ([1]; 360 days): 0.499 mg/g powder
- Stability of Plant-Derived Cannabinoid Compounds in Powder Concentrate ([1]; 390 days): 0.479 mg/g powder
- Stability of Plant-Derived Cannabinoid Compounds in Powder Concentrate ([1]; 420 days): 0.481 mg/g powder
- Stability of Plant-Derived Cannabinoid Compounds in Powder Concentrate ([1]; 450 days): 0.480 mg/g powder
- Stability of Plant-Derived Cannabinoid Compounds in Powder Concentrate ([1]; 480 days): 0.485 mg/g powder
- Stability of Plant-Derived Cannabinoid Compounds in Powder Concentrate ([1]; 510 days): 0.499 mg/g powder
- Stability of Plant-Derived Cannabinoid Compounds in Powder Concentrate ([1]; 540 days): 0.492 mg/g powder
- Stability of Plant-Derived Cannabinoid Compounds in Powder Concentrate ([1]; 570 days): 0.471 mg/g powder
- Stability of Plant-Derived Cannabinoid Compounds in AB White, 8° C. ([2]; 0 days): 2.79 µg/mL
- Stability of Plant-Derived Cannabinoid Compounds in AB White, 8° C. ([2]; 1 days): 2.77 µg/mL
- Stability of Plant-Derived Cannabinoid Compounds in AB White, 8° C. ([2]; 2 days): 2.72 µg/mL
- Stability of Plant-Derived Cannabinoid Compounds in AB White, 8° C. ([2]; 3 days): 2.73 µg/mL
- Stability of Plant-Derived Cannabinoid Compounds in AB White, 8° C. ([2]; 5 days): 2.76 µg/mL
- Stability of Plant-Derived Cannabinoid Compounds in AB White, 8° C. ([2]; 8 days): 2.75 µg/mL
- Stability of Plant-Derived Cannabinoid Compounds in AB White, 8° C. ([2]; 9 days): 2.76 µg/mL
- Stability of Plant-Derived Cannabinoid Compounds in AB White, 8° C. ([2]; 10 days): 2.79 µg/mL
- Stability of Plant-Derived Cannabinoid Compounds in AB White, 8° C. ([2]; 11 days): 2.71 µg/mL
- Stability of Plant-Derived Cannabinoid Compounds in AB White, 8° C. ([2]; 12 days): 2.80 µg/mL
- Stability of Plant-Derived Cannabinoid Compounds in AB White, 8° C. ([2]; 15 days): 2.79 µg/mL
- Stability of Plant-Derived Cannabinoid Compounds in AB White, 8° C. ([2]; 16 days): 2.77 µg/mL
- Stability of Plant-Derived Cannabinoid Compounds in AB White, 8° C. ([2]; 17 days): 2.82 µg/mL
- Stability of Plant-Derived Cannabinoid Compounds in AB White, 8° C. ([2]; 18 days): 2.71 µg/mL
- Stability of Plant-Derived Cannabinoid Compounds in AB White, 8° C. ([2]; 19 days): 2.71 µg/mL
- Stability of Plant-Derived Cannabinoid Compounds in AB White, 8° C. ([2]; 22 days): 2.76 µg/mL
- Stability of Plant-Derived Cannabinoid Compounds in AB White, 8° C. ([2]; 23 days): 2.71 µg/mL
- Stability of Plant-Derived Cannabinoid Compounds in AB White, 8° C. ([2]; 24 days): 2.75 µg/mL
- Stability of Plant-Derived Cannabinoid Compounds in AB White, 8° C. ([2]; 25 days): 2.75 µg/mL
- Stability of Plant-Derived Cannabinoid Compounds in AB White, 8° C. ([2]; 26 days): 2.76 µg/mL
